biological target: Prostaglandin G/H synthase 2 (COX2, PTGS2) (Homo sapiens) (UniProt P35354); test: Inhibition of human COX2 assessed as reduction in PGF2alpha production by ELISA
Sequence (P35354 whole entry, looked up): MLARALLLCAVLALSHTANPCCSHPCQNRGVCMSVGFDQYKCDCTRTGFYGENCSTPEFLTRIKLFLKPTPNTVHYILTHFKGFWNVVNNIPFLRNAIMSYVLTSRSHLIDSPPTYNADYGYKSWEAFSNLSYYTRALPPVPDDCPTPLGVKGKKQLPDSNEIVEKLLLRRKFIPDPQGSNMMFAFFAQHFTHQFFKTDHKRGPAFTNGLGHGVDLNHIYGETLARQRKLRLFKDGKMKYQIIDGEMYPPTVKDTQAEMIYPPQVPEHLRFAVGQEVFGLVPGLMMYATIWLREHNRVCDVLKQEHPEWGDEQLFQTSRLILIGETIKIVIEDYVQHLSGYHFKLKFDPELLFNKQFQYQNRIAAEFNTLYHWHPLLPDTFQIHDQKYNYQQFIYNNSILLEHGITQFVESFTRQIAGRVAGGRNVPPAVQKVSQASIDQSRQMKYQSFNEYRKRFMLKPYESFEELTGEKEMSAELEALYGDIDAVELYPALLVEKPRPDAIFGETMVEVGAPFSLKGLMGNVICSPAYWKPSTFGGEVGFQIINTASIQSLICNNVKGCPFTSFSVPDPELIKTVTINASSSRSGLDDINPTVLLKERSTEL

IC50, > 100 µM:
COc1ccc(Cn2nnc(O)c2C(=O)Nc2cccc(C(F)(F)F)c2)cc1OC
O=C(Nc1cccc(C(F)(F)F)c1)c1c(O)nnn1Cc1ccc(OC(F)(F)F)cc1
O=[N+]([O-])c1cccc(Nc2cccc3onc(O)c23)c1
Oc1noc2cccc(Nc3cccc(S(F)(F)(F)(F)F)c3)c12
Oc1noc2cccc(Nc3cc(C(F)(F)F)cc(C(F)(F)F)c3)c12
Oc1noc2ccc(Nc3cccc(C(F)(F)F)c3)cc12
Oc1noc2cccc(Nc3cccc(C(F)(F)F)c3)c12

From BindingDB's records for doi:10.1016/j.ejmech.2018.03.040 (University of Torino, 2018)
